Data taken from the OPERA property sets (Mansouri et al. 2018).

Row | SMILES | logP
1 | COP(=S)(OC)Oc1ccc([N+](=O)[O-])c(C)c1 | 3.3
2 | O=C(O)CSc1c[nH]c2ccccc12 | 1.78
3 | Cc1cccc(C(N)=O)c1 | 1.18
4 | CCCCCCc1ccncc1 | 4.35
5 | COC(=O)CNC(=O)c1ccccc1 | 0.82
6 | Cc1cccc(C(=O)O)c1O | 2.86
7 | CC(C)C(=O)NN | -0.63
8 | CCCCCOc1ccc(O)cc1 | 3.5
9 | COCc1ccccc1NC(=O)OCCN1CCCCC1 | 2.2
10 | CCOC(=O)C(=Cc1ccc(Cl)cc1)C(C)=O | 3.04
11 | CC(=O)Oc1ccccc1C#N | 1.33
12 | CN(C)C(N(C)C)=S(I)c1ccc(Cl)c(Cl)c1 (stereo unspecified) | 0.49
13 | CC(=O)Nc1ccncc1 | 0.5
14 | CC(C)NC(=O)C=Cc1ccc([N+](=O)[O-])o1 | 1.34
15 | CCCCCCCCCCCCCC[n+]1ccccc1.[Br-] | 1.32
16 | COc1cc(S(C)=O)ccc1-c1nc2ncncc2[nH]1 (stereo unspecified) | 0.53
17 | CC12CCC(O)CC1CCC1C2CCC2(C)C(C3=CC(=O)OC3)C(O)CC12O (stereo unspecified) | 1.6
18 | ClC(Cl)(Cl)C(Cl)(Cl)Cl | 4.14
19 | Cc1ccc(OC(=O)N(C)C)cc1 | 2.03
20 | CNC(C)Cc1ccccc1 (stereo unspecified) | 2.07
21 | CC(=O)CNc1ccccc1C(=O)O | 1.85

Row | SMILES | logP
22 | O=Cc1ccc(OCC(=O)O)cc1 | 0.79
23 | O=[N+]([O-])c1ccc2oncc2c1 | 1.46
24 | O=C(O)Cc1ccc(OCCc2ccccc2)c(Cl)c1 | 3.53
25 | Nc1cccc2cccnc12 | 1.79
26 | N#Cc1ccnc2ccccc12 | 1.98
27 | Clc1ccc(-c2cc(Cl)ccc2Cl)c(Cl)c1 | 6.22
28 | CCCOC(C)=O | 1.24
29 | CO[C@H]1[C@@H](O)C[C@H](O[C@H]2[C@@H](O)C[C@H](O[C@H]3[C@@H](O)C[C@H](O[C@H]4CC[C@@]5(C)[C@H](CC[C@@H]6[C@@H]5C[C@@H](O)[C@]5(C)[C@@H](C7=CC(=O)OC7)CC[C@]65O)C4)O[C@@H]3C)O[C@@H]2C)O[C@@H]1C | 1.8
30 | COc1c(Cl)ccc(Cl)c1C(=O)O | 2.21
31 | O=c1[nH]c(=O)n(C2CCCO2)cc1F (stereo unspecified) | -0.27
32 | C=CCC1(C(C)CC)C(=O)NC(=O)NC1=O (stereo unspecified) | 1.47
33 | CCCN(CCC)C1CCOc2c(O)cccc21 (stereo unspecified) | 3.3
34 | CN(C)C(=O)Nc1cccc(C(F)(F)F)c1 | 2.42
35 | O=Cc1ccc([N+](=O)[O-])cc1 | 1.56
36 | NS(=O)(=O)c1cc2c(cc1Cl)N=CNS2(=O)=O | -0.24
37 | CC(=O)c1cc2ccccc2nn1 | 1.44
38 | O=C(O)C(c1ccccc1)c1ccccc1 | 3.09
39 | Cc1ccc(O)c([N+](=O)[O-])c1 | 2.37
40 | CCC(Oc1ccccc1)C(=O)N[C@@H]1C(=O)N2[C@@H]1SC(C)(C)[C@@H]2C(=O)O (stereo partly specified) | 2.65
41 | CCNC(=S)Nc1ccccc1 | 1.42
42 | COc1ccc(S(I)=C(N(C)C)N(C)C)c([N+](=O)[O-])c1 (stereo unspecified) | -0.22

Row | SMILES | logP
43 | CCCCc1cccc(OCC(=O)O)c1 | 3.18
44 | CC(=O)NC(C)C(=O)NC(C)C(=O)NC(C)C(=O)NC(C)(C)C (stereo unspecified) | -0.51
45 | O=C(O)Cc1cccc(C(=O)O)c1 | 1.14
46 | C1COC1 | -0.14
47 | C=CCOc1cc(N)ccc1C(=O)O | 1.25
48 | CN(N=O)C(=O)NC1C(O)OC(CO)C(O)C1O (stereo unspecified) | -1.45
49 | Cc1ccc(COC(=O)N(C)C)cc1 | 2.63
50 | Cc1ncc[nH]1 | 0.24
51 | Cc1ccc(O)c(C)c1 | 2.3
52 | Cc1c(CC(=O)O)sc2ccc(Cl)cc12 | 3.92
53 | O=C(O)CCCc1ccccc1 | 2.42
54 | CC(=O)OCC(=O)[C@@]1(O)CC[C@H]2[C@@H]3CCC4=CC(=O)CC[C@]4(C)[C@H]3C(=O)C[C@@]21C | 2.1
55 | CCOC(=O)C(=O)c1cccs1 | 1.77
56 | CON(C)C(=O)Nc1cccc(C(F)(F)F)c1 | 2.64
57 | c1ccc(CN2CCOCC2)cc1 | 1.58
58 | CCC1COC(Cn2cncn2)(c2ccc(Cl)cc2Cl)O1 (stereo unspecified) | 3.1
59 | O=C(c1ccccc1)c1ccccc1O | 3.52
60 | O=c1ccc(=O)[nH][nH]1 | -0.84
61 | O=[N+]([O-])c1ccc2cccnc2c1 | 1.82
